Target: HCV NS3-4A serine protease (full-length NS3-4A protein) (Hepatitis C virus genotype 1a (isolate 1) (HCV), UniProt P26664)
Assay: HCV NS3-4A protease assay
Assay type: biochemical, HCV genotype 1a
Conditions: strain HCV-1, fluorogenic peptide substrate, read-out: Protease assay Ex. 12 IC50
Procedure: The inhibitory activity of certain compounds of Table A against HCV NS3-4A serine protease is determined in a homogenous assay using the full-length NS3-4A protein (genotype 1a, strain HCV-1) and a commercially available internally-quenched fluorogenic peptide substrate as described by Taliani, M., et al. 1996 Anal. Biochem. 240:60-67, which is incorporated by reference in its entirety.

HCV NS3-4A serine protease (full-length NS3-4A protein), sequence (P26664 1027-1657): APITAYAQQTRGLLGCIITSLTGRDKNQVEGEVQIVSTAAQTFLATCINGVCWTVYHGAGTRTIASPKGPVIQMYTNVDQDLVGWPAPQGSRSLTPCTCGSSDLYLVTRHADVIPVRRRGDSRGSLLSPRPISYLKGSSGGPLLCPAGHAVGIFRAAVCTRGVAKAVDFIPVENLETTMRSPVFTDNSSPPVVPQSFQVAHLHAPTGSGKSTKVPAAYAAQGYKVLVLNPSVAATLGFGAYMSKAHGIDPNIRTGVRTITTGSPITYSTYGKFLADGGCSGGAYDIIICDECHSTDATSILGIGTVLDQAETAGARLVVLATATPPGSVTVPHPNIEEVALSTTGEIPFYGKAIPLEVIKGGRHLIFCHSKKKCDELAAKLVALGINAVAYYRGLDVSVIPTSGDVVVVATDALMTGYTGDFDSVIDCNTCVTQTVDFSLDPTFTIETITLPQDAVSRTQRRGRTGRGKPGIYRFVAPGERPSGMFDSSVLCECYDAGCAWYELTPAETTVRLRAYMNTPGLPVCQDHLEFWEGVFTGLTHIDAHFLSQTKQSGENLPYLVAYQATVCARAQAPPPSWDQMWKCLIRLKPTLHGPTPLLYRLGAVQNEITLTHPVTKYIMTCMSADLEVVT
HCV NS3-4A serine protease (full-length NS3-4A protein), sequence (P26664 1658-1711 partner): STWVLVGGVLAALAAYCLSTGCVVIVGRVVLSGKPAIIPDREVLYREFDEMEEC

| Structure (SMILES) | IC50 [nM] |
| --- | --- |
| C=C[C@@H]1C[C@]1(NC(=O)[C@@H]1C[C@@]2(CN1C(=O)[C@@H](NC(=O)[C@@H](NC(=O)[C@@H]1CCCCN1C(C)C)C1CCCCC1)C1CCOCC1)C(C)(C)C21CCC1)C(=O)NS(=O)(=O)N1CCCC1 [Compound 41, (5R,8S)-7-[(2S)-2-{[(2S)-2-cyclohexyl-2-({[(2S)-1-isopropylpiperidin-2-yl]carbonyl}amino)acetyl]amino}-2-(tetrahydro-2H-pyran-4-yl)acetyl]-10,10-dimethyl-N-{(1R,2S)-1-[(pyrrolidin-1-ylsulfonyl)carbamoyl]-2-vinylcyclopropyl}-7-azadispiro[3.0.4.1]decane-8-carboxamide] | 0.9 |
| C=C[C@@H]1C[C@]1(NC(=O)[C@@H]1C[C@@]2(CN1C(=O)[C@@H](NC(=O)[C@@H](NC(=O)[C@@H]1SCCN1CC)C1CCCCC1)C(C)(C)C)C(C)(C)C21CCC1)C(=O)NS(=O)(=O)N1CCCC1 [Compound 144, (5R,8S)-7-[(2S)-2-{[(2S)-2-cyclohexyl-2-({[(2S)-3-ethyl-1,3-thiazolidin-2-yl]carbonyl}amino)acetyl]amino}-3,3-dimethylbutanoyl]-10,10-dimethyl-N-{(1R,2S)-1-[(pyrrolidin-1-ylsulfonyl)carbamoyl]-2-vinylcyclopropyl}-7-azadispiro[3.0.4.1]decane-8-carboxamide] | 9 |
| C=C[C@@H]1C[C@]1(NC(=O)[C@@H]1C[C@@]2(CN1C(=O)[C@@H](NC(=O)[C@@H](NC(=O)[C@@H]1CCCCN1C(C)C)C1CCCCC1)C(C)(C)C)C(C)(C)C21CCC1)C(=O)NS(=O)(=O)N1CCCCC1 [Compound 113, (5R,8S)-7-[(2S)-2-{[(2S)-2-cyclohexyl-2-({[(2S)-1-isopropylpiperidin-2-yl]carbonyl}amino)acetyl]amino}-3,3-dimethylbutanoyl]-10,10-dimethyl-N-{(1R,2S)-1-[(piperidin-1-ylsulfonyl)carbamoyl]-2-vinylcyclopropyl}-7-azadispiro[3.0.4.1]decane-8-carboxamide] | 3.5 |
| C=C[C@@H]1C[C@]1(NC(=O)[C@@H]1C[C@@]2(CN1C(=O)[C@@H](NC(=O)[C@@H](NC(=O)c1cnccn1)C1CCCCC1)C(C)(C)C)C(C)(C)C21CCC1)C(=O)NS(=O)(=O)NC1CC1 [Compound 165, (5R,8S)-7-[(2S)-2-({(2S)-2-cyclohexyl-2-[(pyrazin-2-ylcarbonyl)amino]acetyl}amino)-3,3-dimethylbutanoyl]-N-[(1R,2S)-1-{[(cyclopropylamino)sulfonyl]carbamoyl}-2-vinylcyclopropyl]-10,10-dimethyl-7-azadispiro[3.0.4.1]decane-8-carboxamide] | 6.2 |
| C=C[C@@H]1C[C@]1(NC(=O)[C@@H]1C[C@@]2(CN1C(=O)[C@@H](NC(=O)[C@@H](NC(=O)[C@@H]1CCCN1CC)C1CCCCC1)C(C)(C)C)C(C)(C)C21CCC1)C(=O)NS(=O)(=O)N1CCCCC1 [Compound 95, (5R,8S)-7-[(2S)-2-{[(2S)-2-cyclohexyl-2-({[(2S)-1-ethylpyrrolidin-2-yl]carbonyl}amino)acetyl]amino}-3,3-dimethylbutanoyl]-10,10-dimethyl-N-{(1R,2S)-1-[(piperidin-1-ylsulfonyl)carbamoyl]-2-vinylcyclopropyl}-7-azadispiro[3.0.4.1]decane-8-carboxamide] | 5 |
| C=C[C@@H]1C[C@]1(NC(=O)[C@@H]1C[C@@]2(CN1C(=O)[C@@H](NC(=O)[C@@H](NC(=O)[C@@H]1CCCCN1C(C)C)C1CCCCC1)C(C)(C)C)C(C)(C)C21CCC1)C(=O)NS(=O)(=O)N(CC)CC(F)F [Compound 155, (5R,8S)-7-[(2S)-2-{[(2S)-2-cyclohexyl-2-({[(2S)-1-isopropylpiperidin-2-yl]carbonyl}amino)acetyl]amino}-3,3-dimethylbutanoyl]-N-[(1R,2S)-1-({[(2,2-difluoroethyl)(ethyl)amino]sulfonyl}carbamoyl)-2-vinylcyclopropyl]-10,10-dimethyl-7-azadispiro[3.0.4.1]decane-8-carboxamide] | 4.4 |
| C=C[C@@H]1C[C@]1(NC(=O)[C@@H]1C[C@@]2(CN1C(=O)[C@@H](NC(=O)[C@@H](NC(=O)c1cc(CC)nn1C)C1CCCCC1)C(C)(C)C)C(C)(C)C21CCC1)C(=O)NS(=O)(=O)N1CCCC1 [Compound 185, (5R,8S)-7-{(2S)-2-[(cyclohexyl{[(3-ethyl-1-methyl-1H-pyrazol-5-yl)carbonyl]amino}acetyl)amino]-3,3-dimethylbutanoyl}-10,10-dimethyl-N-{(1R,2S)-1-[(pyrrolidin-1-ylsulfonyl)carbamoyl]-2-vinylcyclopropyl}-7-azadispiro[3.0.4.1]decane-8-carboxamide] | 40 |
| C=C[C@@H]1C[C@]1(NC(=O)[C@@H]1C[C@@]2(CN1C(=O)[C@@H](NC(=O)[C@@H](NC(=O)[C@H]1CCCCN1C(C)C)C1CCCCC1)C(C)(C)C)C(C)(C)C21CCC1)C(=O)NS(=O)(=O)N(CC)C(C)C [Compound 120, (5R,8S)-7-[(2S)-2-{[(2S)-2-cyclohexyl-2-({[(2R)-1-isopropylpiperidin-2-yl]carbonyl}amino)acetyl]amino}-3,3-dimethylbutanoyl]-N-[(1R,2S)-1-({[ethyl(isopropyl)amino]sulfonyl}carbamoyl)-2-vinylcyclopropyl]-10,10-dimethyl-7-azadispiro[3.0.4.1]decane-8-carboxamide] | 10 |
| [2H]C([2H])([2H])N(C([2H])([2H])[2H])S(=O)(=O)NC(=O)[C@@]1(NC(=O)[C@@H]2C[C@@]3(CN2C(=O)[C@@H](NC(=O)[C@@H](NC(=O)[C@@H]2CCCCN2C(C)C)C2CCCCC2)C(C)(C)C)C(C)(C)C32CCC2)C[C@H]1C=C [Compound 148, (5R,8S)-7-[(2S)-2-{[(2S)-2-cyclohexyl-2-({[(2S)-1-isopropylpiperidin-2-yl]carbonyl}amino)acetyl]amino}-3,3-dimethylbutanoyl]-N-[(1R,2S)-1-{[(d6-dimethylamino)sulfonyl]carbamoyl}-2-vinylcyclopropyl]-10,10-dimethyl-7-azadispiro[3.0.4.1]decane-8-carboxamide-d6] | 0.8 |
| C=C[C@@H]1C[C@]1(NC(=O)[C@@H]1C[C@@]2(CN1C(=O)[C@@H](NC(=O)[C@@H](NC(=O)[C@@H]1CCCN1CC(F)F)C1CCCCC1)C1CCOCC1)C(C)(C)C21CCC1)C(=O)NS(=O)(=O)N1CCCC1 [Compound 72, (5R,8S)-7-[(2S)-2-{[(2S)-2-cyclohexyl-2-({[(2S)-1-(2,2-difluoroethyl)pyrrolidin-2-yl]carbonyl}amino)acetyl]amino}-2-(tetrahydro-2H-pyran-4-yl)acetyl]-10,10-dimethyl-N-{(1R,2S)-1-[(pyrrolidin-1-ylsulfonyl)carbamoyl]-2-vinylcyclopropyl}-7-azadispiro[3.0.4.1]decane-8-carboxamide] | 70 |
| C=C[C@@H]1C[C@]1(NC(=O)[C@@H]1C[C@@]2(CN1C(=O)[C@@H](NC(=O)[C@@H](NC(=O)[C@@H]1CCCCN1C(C)C)C(C)C)C(C)C)C(C)(C)C21CCC1)C(=O)NS(=O)(=O)N(CC)CC [Compound 130, (5R,8S)-N-[(1R,2S)-1-{[(diethylamino)sulfonyl]carbamoyl}-2-vinylcyclopropyl]-7-[(2S)-2-{[(2S)-2-({[(2S)-1-isopropylpiperidin-2-yl]carbonyl}amino)-3-methylbutanoyl]amino}-3-methylbutanoyl]-10,10-dimethyl-7-azadispiro[3.0.4.1]decane-8-carboxamide] | 8 |
| [2H]C([2H])([2H])C([2H])([2H])N(C([2H])([2H])C([2H])([2H])[2H])S(=O)(=O)NC(=O)[C@@]1(NC(=O)[C@@H]2C[C@@]3(CN2C(=O)[C@@H](NC(=O)[C@@H](NC(=O)[C@@H]2CCCCN2C(C)C)C2CCCCC2)C(C)(C)C)C(C)(C)C32CCC2)C[C@H]1C=C [Compound 149, (5R,8S)-7-[(2S)-2-{[(2S)-2-cyclohexyl-2-({[(2S)-1-isopropylpiperidin-2-yl]carbonyl}amino)acetyl]amino}-3,3-dimethylbutanoyl]-N-[(1R,2S)-1-{[(d10-diethylamino)sulfonyl]carbamoyl}-2-vinylcyclopropyl]-10,10-dimethyl-7-azadispiro[3.0.4.1]decane-8-carboxamide-d10] | 1.5 |
| C=C[C@@H]1C[C@]1(NC(=O)[C@@H]1C[C@@]2(CN1C(=O)[C@@H](NC(=O)[C@@H](NC(=O)C(C)(C)N1CCCCC1)C1CCCCC1)C(C)(C)C)C(C)(C)C21CCC1)C(=O)NS(=O)(=O)N1CCCC1 [Compound 25, (5R,8S)-7-[(2S)-2-({(2S)-2-cyclohexyl-2-[(2-methyl-2-piperidin-1-ylpropanoyl)amino]acetyl}amino)-3,3-dimethylbutanoyl]-10,10-dimethyl-N-{(1R,2S)-1-[(pyrrolidin-1-ylsulfonyl)carbamoyl]-2-vinylcyclopropyl}-7-azadispiro[3.0.4.1]decane-8-carboxamide] | 8 |
| C=C[C@@H]1C[C@]1(NC(=O)[C@@H]1C[C@@]2(CN1C(=O)[C@@H](NC(=O)[C@@H](NC(=O)[C@@H]1CCCN1CC)C1CCCCC1)C(C)(C)C)C(C)(C)C21CCC1)C(=O)NS(=O)(=O)N(CC)C(C)C [Compound 111, (5R,8S)-7-[(2S)-2-{[(2S)-2-cyclohexyl-2-({[(2S)-1-ethylpyrrolidin-2-yl]carbonyl}amino)acetyl]amino}-3,3-dimethylbutanoyl]-N-[(1R,2S)-1-({[ethyl(isopropyl)amino]sulfonyl}carbamoyl)-2-vinylcyclopropyl]-10,10-dimethyl-7-azadispiro[3.0.4.1]decane-8-carboxamide] | 8 |
| C=C[C@@H]1C[C@]1(NC(=O)[C@@H]1C[C@@]2(CN1C(=O)[C@@H](NC(=O)[C@@H](NC(=O)[C@@H]1CCCCN1C(C)C)C1CCCCC1)C(C)(C)C)C(C)(C)C21CCC1)C(=O)NS(=O)(=O)N(C)CC [Compound 170, (5R,8S)-7-[(2S)-2-{[(2S)-2-cyclohexyl-2-({[(2S)-1-isopropylpiperidin-2-yl]carbonyl}amino)acetyl]amino}-3,3-dimethylbutanoyl]-N-[(1R,2S)-1-({[ethyl(methyl)amino]sulfonyl}carbamoyl)-2-vinylcyclopropyl]-10,10-dimethyl-7-azadispiro[3.0.4.1]decane-8-carboxamide] | 0.5 |
